Patent publication US20080207725A1, “Phenyl-Pyrazole Derivatives as Non-Steroidal Glucocorticoid Receptor Ligands” (Glaxo Group Limited, a corporation, priority 2005, published 2008)

These molecules were tested on NFkB activity (assay: Glucocorticoid mediated transrepression of NFkB activity (A549 ELAM promoter SPAP reporter, TNFα stimulated)). Details: Human A549 lung epithelial cells, 3 ng/ml human recombinant TNFα, 16 hours; read-out: pEC50, transrepression of NFkB activity (converted).
Assay type: cell-based
From the text: Human A549 lung epithelial cells were engineered to contain a secreted placental alkaline phosphatase gene under the control of the distal region of the NFkB dependent ELAM promoter as previously described in Ray, K. P., Farrow, S., Daly, M., Talabot, F. and Searle, N. “Induction of the E-selectin promoter by interleukin 1 and tumour necrosis factor alpha, and inhibition by glucocorticoids” Biochemical Journal (1997) 328: 707-15.
Compounds were solvated and diluted in DMSO, and transferred directly into assay plates such that the final concentration of DMSO was 0.7%. Following the addition of cells (40K per well), plates were incubated for 1 hour prior to the addition of 3 ng/ml human recombinant TNFα. Following continued incubation for 16 hours, alkaline phosphatase activity was determined by measuring the change in optical density at 405 nm with time following the addition of 0.7 volumes of assay buffer (1 mg/ml p-nitrophenylphosphate dissolved in 1M diethanolamine, 0.28M NaCl, 0.5 mM MgCl2). Dose response curves were constructed from which EC50 values were estimated.

Row | EC50 [nM] | Compound
1 | < 3.16 | CC(C)(C[C@@](O)(CNC(=O)c1cnn(-c2ccc(Cl)cc2)c1N)C(F)(F)F)c1cccc2c1OCC2 [Example 15, (2R)-5-Amino-1-(4-chlorophenyl)-N-[4-(2,3-dihydro-1-benzofuran-7-yl)-2-hydroxy-4-methyl-2-(trifluoromethyl)Pentyl]-1H-pyrazole-4-carboxamide]
2 | < 3.16 | CC(C)(C[C@@](O)(CNC(=O)c1cnn(-c2ccccc2)c1N)C(F)(F)F)c1cc(F)ccc1O [Example 11, (2R)-5-Amino-N-[4-(5-fluoro-2-hydroxyphenyl)-2-hydroxy-4-methyl-2-(trifluoromethyl)pentyl]-1-phenyl-1H-pyrazole-4-carboxamide]
3 | < 3.16 | CC(C)(C[C@@](O)(CNC(=O)c1cnn(-c2ccc(F)cc2F)c1N)C(F)(F)F)c1cccc2c1OCC2 [Example 14, (2R)-5-Amino-1-(2,4-difluorophenyl)-N-[4-(2,3-dihydro-1-benzofuran-7-yl)-2-hydroxy-4-methyl-2-(trifluoromethyl)pentyl]-1H-pyrazole-4-carboxamide]
4 | < 3.16 | CC(C)(C[C@@](O)(CNC(=O)c1cnn(-c2ccc(F)cc2)c1N)C(F)(F)F)c1cccc2c1OCC2 [Example 13, (2R)-5-Amino-N-[4-(2,3-dihydro-1-benzofuran-7-yl)-2-hydroxy-4-methyl-2-(trifluoromethyl)pentyl]-1-(4-fluorophenyl)-1H-pyrazole-4-carboxamide]
5 | < 3.16 | CC(C)(C[C@@](O)(CNC(=O)c1cnn(-c2ccccc2F)c1N)C(F)(F)F)c1cccc2c1OCC2 [Example 12, (2R)-5-Amino-N-[4-(2,3-dihydro-1-benzofuran-7-yl)-2-hydroxy-4-methyl-2-(trifluoromethyl)pentyl]-1-(2-fluorophenyl)-1H-pyrazole-4-carboxamide]

Second part, the molecule before the results:

Row | Compound | EC50 [nM]
6 | COc1ccc(F)cc1C(C)(C)C[C@@](O)(CNC(=O)c1cnn(-c2ccc(F)cc2F)c1N)C(F)(F)F [Example 4, (2R)-5-Amino-1-(2,4-difluorophenyl)-N-[4-[5-fluoro-2-(methyloxy)phenyl]-2-hydroxy-4-methyl-2-(trifluoromethyl)pentyl]-1H-pyrazole-4-carboxamide] | < 3.16
7 | COc1ccc(F)cc1C(C)(C)C[C@@](O)(CNC(=O)c1cnn(-c2ccc(F)cc2)c1N)C(F)(F)F [Example 2, (2R)-5-Amino-N-[4-[5-fluoro-2-(methyloxy)phenyl]-2-hydroxy-4-methyl-2-(trifluoromethyl)pentyl]-1-(4-fluorophenyl)-1H-pyrazole-4-carboxamide] | < 3.16
8 | CC(C)(C[C@@](O)(CNC(=O)c1cnn(-c2ccccc2)c1N)C(F)(F)F)c1cccc2c1OCC2 [Example 1, (2R)-5-Amino-N-[4-(2,3-dihydro-1-benzofuran-7-yl)-2-hydroxy-4-methyl-2-(trifluoromethyl)pentyl]-1-phenyl-1H-pyrazole-4-carboxamide] | < 3.16
9 | CC(C)(C[C@@](O)(CNC(=O)c1cnn(-c2ccc(Cl)cc2)c1N)C(F)(F)F)c1cc(F)ccc1O [Example 10, (2R)-5-Amino-1-(4-chlorophenyl)-N-[4-(5-fluoro-2-hydroxyphenyl)-2-hydroxy-4-methyl-2-(trifluoromethyl)pentyl]-1H-pyrazole-4-carboxamide] | < 3.16
10 | COc1ccc(F)cc1C(C)(C)C[C@@](O)(CNC(=O)c1cnn(-c2ccccc2)c1N)C(F)(F)F [Example 6, (2R)-5-Amino-N-[4-[5-fluoro-2-(methyloxy)phenyl]-2-hydroxy-4-methyl-2-(trifluoromethyl)pentyl]-1-phenyl-1H-pyrazole-4-carboxamide] | < 3.16
11 | CC(C)(C[C@@](O)(CNC(=O)c1cnn(-c2ccccc2F)c1N)C(F)(F)F)c1cc(F)ccc1O [Example 8, (2R)-5-Amino-N-[4-(5-fluoro-2-hydroxyphenyl)-2-hydroxy-4-methyl-2-(trifluoromethyl)pentyl]-1-(2-fluorophenyl)-1H-pyrazole-4-carboxamide] | < 3.16
12 | COc1ccc(F)cc1C(C)(C)C[C@@](O)(CNC(=O)c1cnn(-c2ccccc2F)c1N)C(F)(F)F [Example 3, (2R)-5-Amino-N-[4-[5-fluoro-2-(methyloxy)phenyl]-2-hydroxy-4-methyl-2-(trifluoromethyl)pentyl]-1-(2-fluorophenyl)-1H-pyrazole-4-carboxamide] | < 3.16
13 | CC(C)(C[C@@](O)(CNC(=O)c1cnn(-c2ccc(F)cc2)c1N)C(F)(F)F)c1cc(F)ccc1O [Example 7, (2R)-5-Amino-N-[4-(5-fluoro-2-hydroxyphenyl)-2-hydroxy-4-methyl-2-(trifluoromethyl)pentyl]-1-(4-fluorophenyl)-1H-pyrazole-4-carboxamide] | < 3.16
14 | CC(C)(C[C@@](O)(CNC(=O)c1cnn(-c2ccc(F)cc2F)c1N)C(F)(F)F)c1cc(F)ccc1O [Example 9, (2R)-5-Amino-1-(2,4-difluorophenyl)-N-[4-(5-fluoro-2-hydroxyphenyl)-2-hydroxy-4-methyl-2-(trifluoromethyl)pentyl]-1H-pyrazole-4-carboxamide] | < 3.16
15 | COc1ccc(F)cc1C(C)(C)C[C@@](O)(CNC(=O)c1cnn(-c2ccc(Cl)cc2)c1N)C(F)(F)F [Example 5, (2R)-5-Amino-1-(4-chlorophenyl)-N-[4-[5-fluoro-2-(methyloxy)phenyl]-2-hydroxy-4-methyl-2-(trifluoromethyl)pentyl]-1H-pyrazole-4-carboxamide] | < 3.16
